# “And” between values parts separate entries of the source, which are not always exact repeats. Equal entries are not always repeated.
# Legend:
# [1] = test system: PRMT5 mRNA in Kelly cells; test: PRMT5 mRNA in Kelly neuroblastoma cells; format: cell-based, human; conditions: 5 µM, 24 h, vs DMSO
# Protocol: Human neuroblastoma ‘Kelly’ cells (genotype APOE3/APOE4) were plated in 96-well plates at 50K cells per well and were grown overnight in RPMI 1640 supplemented with 2 mM Glutamine, 10% FBS and 1% Pen-Strep. Cells were treated with 5 µM DDL-214, -218, or -219; or DMSO vehicle (n = 8 per compound). Twenty-four hours later, medium was removed, cells washed and lysed as described above for N2a-E4 cells.
# (§1) Total RNA was isolated from cells or brain tissue (Qiagen RNEasy kit). Total RNA (0.5–1.0 µg) mRNA was then converted to cDNA (SuperScript™ III First-Strand Synthesis SuperMix kit; Thermo Fisher), and gene mRNA levels were measured using a gene-specific qRT-PCR Taqman assays (Thermo Fisher). Gene mRNA levels were normalized to GAPDH mRNA levels measured either in the same cDNA sample or in the same qPCR reaction using multiplexing of gene-of-interest/VIC and GAPDH/FAM, normalized by the delta-delta-Ct method.
# [2] = In vivo pharmacokinetic analysis, brain levels after oral gavage; design: species or system C57BL/6J mice; conditions: single time point one hour, oral gavage 30 mg/Kg, n = 1; 30 mg/kg
# Protocol: […] One hour later, mice were euthanized by pentobarbital over-anesthesia and trans-cardial collection of blood for isolation of plasma by centrifugation at 10,000 x g for 10 min at 4 °C. Brain tissue was collected for analysis, frozen on dry ice and stored at -80 °C before analysis.
# For LC/MS/MS analysis, tissue samples were homogenized in a bead beater using 5 volumes of ice-cold 80% acetonitrile (1/5; mg of tissue/ µL of 80% ACN). Solutions were clarified by centrifugation (16,000 x g, 5 min) and the supernatants were transferred to new tubes and lyophilized. Samples were reconstituted in 100 µL of 50/50/0.1 (water/acetonitrile/formic acid) before analysis via liquid chromatography-tandem mass spectrometry.
# A 6460 triple quadrupole mass spectrometer (Agilent Technologies) coupled to a 1290 Infinity HPLC system (Agilent Technologies) with a Phenomenex analytical column (Kinetex 1.7 μm C18 100 Å 100 × 2.1 mm) was used for HPLC. The HPLC method utilized a mixture of solvent A (99.9/1 water/formic acid) and solvent B (99.9/1 acetonitrile/formic acid) and a gradient was used for the elution of the compounds (min/%B: 0/20, 3/20, 19/99, 20/99, 21/20, 30/20).
# An internal standard (IS; Reserpine) was added to every sample to account for compound loss during sample processing. Standards were made in drug naïve brain and plasma with increasing amounts of DDL-214- (S1,S2: 0.1 pmol/ S3,S4: 1 pmol/ S5,S6: 10 pmol/ S7,S8: 100 pmol/ S9,S10: 1000 pmol). The standard curve was made by plotting the amount of each compound per standard vs. the ratio of measured chromatographic peak areas corresponding to DDL-214 (DDL-214 -/Reserpine). The trendline equation was then used to calculate the absolute concentrations of DDL-214/-218/-219 in brain tissue and plasma.
# SirT1 promoter = test: ChIP analysis of SirT1 promoter occupancy in brain tissue of ApoE4-TR:5xFAD mice; format: in vivo; conditions: vs Veh
# Protocol: 17-371) following manufacturer's instructions. Brain was frozen to -80C, then powdered on dry
# ice and split for either RNA analysis or for the ChIP assay, approximately ~100mg powderized
# tissue was fixed in formaldehyde. For cultured cells in vitro, cells were fixed in each well and
# harvested by scraping. Samples were sonicated to break chromatin into 200-1000bp fragments
# (according to previously optimized conditions), using a Epishear programmable sonicator (Active
# Motif), and aliquots were subjected to immunoprecipitation with antibodies against either apoE4
# (Novus), RNA Polymerase (supplied in the Ez-ChIP kit), or mouse IgG (isotype matched).
# Immunoprecipitated chromatin was subjected to conditions that reversed the cross-links, and
# DNA was purified. The immunoprecipitated DNA was measured for the level of immuno-captured
# SirT1 gene promoter sequence using qPCR with PCR primers that bind flanking the SirT1 CLEAR
# sequence. PCR produced an amplicon of 125bp with the CLEAR site near one end, the CLEAR
# sequence is bold underlined in the following 125bp PCR amplicon:
# PCR amplification Ct values for apoE4 and RNAP were normalized to the levels obtained for
# IgG and further normalized to the level of input DNA. This level of immuno-captured DNA indicates
# the level of apoE4 or RNAP occupancy of CLEAR site region of the SirT1 gene promoter.
# Figure S7. SirT1 promoter binding by RNA polymerase and ApoE4. […]
# PRMT5 mRNA = test: Hippocampal PRMT5 mRNA in ApoE4-TR:5xFAD mice; format: in vivo; conditions: 20 mg/Kg BID, 56 days, vs vehicle
# Protocol: The active (-) enantiomer, DDL-218, underwent efficacy testing in ApoE4-TR:5xFAD mice[27] that were 6-7.5 months old at the start of treatment. ApoE4-TR:5xFAD male and female mice received either 20 mg/Kg DDL-218 BID (~ 8- to10-hour interval; total daily dose of 40 mkd) on weekdays and a single 40 mg/Kg dose on weekends (n = 12) or vehicle-only (n = 11); 8 C57BL/6 mice received vehicle-only as behavioral controls. Dosing was by the oral route and by oral feeding using a pipette as previously described, not gavage, as it is safer for repeated oral dosing than gavage. The dose of 20 mg/kg BID (40 mkd) was selected based on findings from PK analysis and was the highest feasible in the formulation used for oral feeding (compound is first solubilized in water, then mixed strawberry syrup diluted in water, for a final vehicle that is 25% syrup and 75% water). […]
# as §1
compound,measurement,setting,value
CC(N)C(=O)OC(C)(C)Cc1ccncc1 (centres unmarked) [DDL-218],PRMT5 expression (mRNA),[1],significantly increases PRMT5 expression
same,brain levels,[2],~ 8400 ng/g and 37.8 µM
same,ApoE4 binding to the SirT1 promoter,SirT1 promoter,"lower, but the effect was not significant"
same,RNAP binding to the SirT1 promoter,SirT1 promoter,significantly increased
same,hippocampal PRMT5 mRNA,PRMT5 mRNA,significantly increased
